In ChEMBL document CHEMBL5614417, “Discovery of AMPs from random peptides via deep learning-based model and biological activity validation” (Eur J Med Chem, 2024):
≈ marks a conversion by molar mass, not a printed value. Calls of active or inactive are those of the source. No cut-off for these calls is given here. Where a SMILES comes first, the peptide text is derived from it.

Experiments:
[1] = test system: Cell membrane; assay: Disruption of outer membrane integrity in Escherichia coli assessed as increase in fluorescence intensity by measuring NPN uptake measured every min for 15 mins by fluorescence based analysis; format: cell membranes
[2] = test system: Cell membrane; assay: Induction of cell membrane damage in Staphylococcus aureus assessed as change in morphology by measuring deformed membrane at 4 times MIC incubated for 5 hrs by SEM analysis; format: cell membranes
[3] = test system: Escherichia coli; assay: Antibacterial activity against Escherichia coli ATCC 25922 incubated for 18 hrs by visual inspection method; format: functional
[4] = test system: Cell membrane; assay: Induction of cell membrane damage in Staphylococcus aureus assessed as decrease in red/green fluorescence ratio at 2 times MIC by DiOC2(3) fluorescent probe based assay; format: cell membranes
[5] = test system: Acinetobacter baumannii; assay: Antibacterial activity against Acinetobacter baumannii ATCC 19606 incubated for 18 hrs by visual inspection method; format: functional
[6] = test system: Escherichia coli; assay: Antibacterial activity against ESBL Escherichia coli 2 incubated for 18 hrs by visual inspection method; format: functional
[7] = test system: Cell membrane; assay: Induction of cell membrane damage in Escherichia coli assessed as change in morphology by measuring numerous blebs covered membrane at 4 times MIC incubated for 5 hrs by SEM analysis; format: cell membranes
[8] = test system: Staphylococcus epidermidis; assay: Antibacterial activity against Staphylococcus epidermidis ATCC 12228 incubated for 18 hrs by visual inspection method; format: functional
[9] = test system: Staphylococcus aureus; assay: Antibacterial activity against methicillin resistant Staphylococcus aureus 4 incubated for 18 hrs by visual inspection method; format: functional
[10] = test system: Acinetobacter baumannii; assay: Antibacterial activity against multidrug resistant Acinetobacter baumannii 1 incubated for 18 hrs by visual inspection method; format: functional
[11] = test system: Staphylococcus aureus; assay: Antibacterial activity against Staphylococcus aureus ATCC 25923 incubated for 18 hrs in presence of 150 mM NaCl by visual inspection method; format: functional
[12] = test system: Escherichia coli; assay: Antibacterial activity against ESBL Escherichia coli 1 incubated for 18 hrs by visual inspection method; format: functional
[13] = test system: Cell membrane; assay: Induction of cell membrane damage in Escherichia coli assessed as change in morphology by measuring deformed membrane at 4 times MIC incubated for 5 hrs by SEM analysis; format: cell membranes
[14] = test system: Cell membrane; assay: Induction of cell membrane damage in Staphylococcus aureus at 4 times MIC incubated for 30 mins by PI staining based confocal laser scanning microscopic analysis; format: cell membranes
[15] = Stability in Sprague-Dawley rat serum assessed as retention rate at 62.5 ug/ml measured after 2 hrs by RP-HPLC method; format: ADME, cell-free; settings: at 62.5 µg/mL, read-out: Stability
[16] = test system: Staphylococcus aureus; assay: Antibacterial activity against Staphylococcus aureus ATCC 25923 incubated for 18 hrs in presence of 100 mM NaCl by visual inspection method; format: functional
[17] = test system: Staphylococcus aureus; assay: Antibacterial activity against methicillin resistant Staphylococcus aureus 2 incubated for 18 hrs by visual inspection method; format: functional
[18] = Toxicity in BALB/c mouse assessed as heart damage at 400 mg/kg, ip measured after 48 hrs by H and E staining based assay; format: organism-based; settings: in vivo
[19] = test system: Staphylococcus aureus; assay: Inhibition of biofilm formation in Staphylococcus aureus at 4 times MIC incubated for 24 hrs by crystal violet staining based assay; format: functional
[20] = test system: Bacillus subtilis; assay: Antibacterial activity against Bacillus subtilis ATCC 23857 incubated for 18 hrs by visual inspection method; format: functional
[21] = test system: Erythrocyte; assay: Hemolytic activity in rat erythrocytes at 500 to 1000 ug/ml incubated for 1 hr; format: toxicity, cell-based; settings: dose 500-1000 µg/ml
[22] = test system: Escherichia coli; assay: Antibacterial activity against ESBL Escherichia coli 5 incubated for 18 hrs by visual inspection method; format: functional
[23] = test system: Klebsiella pneumoniae; assay: Antibacterial activity against Klebsiella pneumoniae ATCC 700603 incubated for 18 hrs by visual inspection method; format: functional
[24] = test system: Staphylococcus aureus; assay: Antibacterial activity against Staphylococcus aureus infected in BALB/c mouse at 10 to 20 mg/kg administered every 4 hrs for 3 doses and measured after 4 hrs post last dose; format: functional, organism-based; settings: dose 10-20 mg/kg, time 16.0 hrs
[25] = test system: Staphylococcus aureus; assay: Inhibition of biofilm formation in Staphylococcus aureus at 8 times MIC incubated for 24 hrs by crystal violet staining based assay; format: functional
[26] = test system: Erythrocyte; assay: Hemolytic activity in rat erythrocytes incubated for 1 hr; format: toxicity, cell-based
[27] = Toxicity in BALB/c mouse assessed as kidney damage at 400 mg/kg, ip measured after 48 hrs by H and E staining based assay; format: organism-based; settings: in vivo
[28] = test system: Escherichia coli; assay: Antibacterial activity against ESBL Escherichia coli 4 incubated for 18 hrs by visual inspection method; format: functional
[29] = test system: Cell membrane; assay: Induction of inner membrane permeability in Escherichia coli ML-35 measured every 5 mins for 90 mins by ONPG dye based assay; format: cell membranes
[30] = Toxicity in BALB/c mouse assessed as spleen damage at 400 mg/kg, ip measured after 48 hrs by H and E staining based assay; format: organism-based; settings: in vivo
[31] = test system: Staphylococcus aureus; assay: Antibacterial activity against methicillin resistant Staphylococcus aureus 1 incubated for 18 hrs by visual inspection method; format: functional
[32] = test system: Cell membrane; assay: Induction of cell membrane damage in Staphylococcus aureus assessed as change in morphology by measuring roughened membrane at 4 times MIC incubated for 5 hrs by SEM analysis; format: cell membranes
[33] = test system: Cell membrane; assay: Induction of cell membrane damage in Staphylococcus aureus assessed as change in morphology by measuring numerous blebs covered membrane at 4 times MIC incubated for 5 hrs by SEM analysis; format: cell membranes
[34] = test system: Staphylococcus aureus; assay: Antibacterial activity against Staphylococcus aureus ATCC 25923 incubated for 18 hrs in presence of 50 mM NaCl by visual inspection method; format: functional
[35] = Toxicity in BALB/c mouse assessed as lung damage at 400 mg/kg, ip measured after 48 hrs by H and E staining based assay; format: organism-based; settings: in vivo
[36] = test system: Cell membrane; assay: Induction of inner membrane permeability in Escherichia coli ML-35 at 1 to 4 times MIC by ONPG dye based assay; format: cell membranes; settings: TDE = time-dependent effect
[37] = test system: Staphylococcus aureus; assay: Induction of resistance development against Staphylococcus aureus assessed as fold increase in MIC after 21 passages; format: functional
[38] = test system: Erythrocyte; assay: Hemolytic activity in rat erythrocytes at 250 ug/ml incubated for 1 hr; format: toxicity, cell-based; settings: dose 250 µg/ml
[39] = test system: Escherichia coli; assay: Bactericidal activity against Escherichia coli at 2 times MIC measured after 3 hrs by time kill kinetic assay; format: functional, organism-based
[40] = test system: Staphylococcus aureus; assay: Inhibition of biofilm formation in Staphylococcus aureus at 2 times MIC incubated for 24 hrs by crystal violet staining based assay; format: functional
[41] = test system: Staphylococcus aureus; assay: Bactericidal activity against Staphylococcus aureus at 4 times MIC measured after 2 hrs by time kill kinetic assay; format: functional
[42] = test system: Cell membrane; assay: Induction of cell membrane damage in Staphylococcus aureus assessed as decrease in red/green fluorescence ratio by DiOC2(3) fluorescent probe based assay; format: cell membranes
[43] = Toxicity in BALB/c mouse assessed as edema in hepatocytes at 200 to 400 mg/kg, ip measured after 48 hrs by H and E staining based assay; format: organism-based; settings: in vivo, dose 200-400 mg/kg
[44] = test system: Escherichia coli; assay: Bactericidal activity against Escherichia coli at 4 times MIC measured after 2 hrs by time kill kinetic assay; format: functional
[45] = test system: Escherichia coli; assay: Antibacterial activity against Escherichia coli ATCC 25922 incubated for 18 hrs in presence of 150 mM NaCl by visual inspection method; format: functional
[46] = test system: Staphylococcus aureus; assay: Antibacterial activity against Staphylococcus aureus ATCC 25923 incubated for 18 hrs by visual inspection method; format: functional
[47] = test system: Acinetobacter baumannii; assay: Antibacterial activity against multidrug resistant Acinetobacter baumannii 5 incubated for 18 hrs by visual inspection method; format: functional

Structure (SMILES): CC[C@H](C)[C@H](NC(=O)[C@H](Cc1ccccc1)NC(=O)[C@@H](N)Cc1c[nH]c2ccccc12)C(=O)N[C@H](C(=O)N[C@@H](Cc1c[nH]c2ccccc12)C(=O)N[C@@H](Cc1c[nH]cn1)C(=O)N[C@@H](Cc1c[nH]c2ccccc12)C(=O)N[C@@H](CCCNC(=N)N)C(=O)N[C@@H](CCCCN)C(=O)N[C@H](C(=O)N1CCC[C@H]1C(=O)N1CCC[C@H]1C(=O)N[C@@H](CCCCN)C(N)=O)[C@@H](C)CC)[C@@H](C)CC (H-WFIIWHWRKIPPK-NH2)
- Activity [1]: Dose-Dependent Effect
- Activity [2]: Active
- MIC [3]: 15 µg/mL (≈ 8.3 µM)
- Activity [4]: Active
- MIC [5]: 7.5 µg/mL (≈ 4.15 µM)
- MIC [6]: 15 µg/mL (≈ 8.3 µM)
- Activity [7]: Active
- MIC [8]: 3.75 µg/mL (≈ 2.08 µM)
- MIC [9]: 7.5 µg/mL (≈ 4.15 µM)
- MIC [10]: 7.5 µg/mL (≈ 4.15 µM)
- MIC [11]: 7.5 µg/mL
- MIC [12]: 15 µg/mL (≈ 8.3 µM)
- Activity [13]: Active
- Activity [14]: Active
- remaining at 2 h, 62.5 ug/ml [15]: 41.2%
- MIC [16]: 7.5 µg/mL
- MIC [17]: 7.5 µg/mL (≈ 4.15 µM)
- Activity [18]: Non-Toxic
- inhibition (INH) [19]: 32.46%
- MIC [20]: 3.75 µg/mL (≈ 2.08 µM)
- Activity [21]: Toxic
- MIC [22]: 15 µg/mL (≈ 8.3 µM)
- MIC [23]: 30 µg/mL (≈ 16.6 µM)
- Activity [24]: Active
- inhibition (INH) [25]: >90%
- HC5 [26]: 416.15 µg/mL
- Activity [27]: Non-Toxic
- MIC [28]: 15 µg/mL (≈ 8.3 µM)
- Activity [29]: Dose-Dependent Effect
- Activity [30]: Non-Toxic
- MIC [31]: 7.5 µg/mL (≈ 4.15 µM)
- Activity [32]: Active
- Activity [33]: Active
- MIC [34]: 7.5 µg/mL
- Activity [35]: Non-Toxic
- Activity [36]: Tde
- fold change (FC) [37]: 2
- Activity [38]: Non-Toxic
- Activity [39]: Active
- inhibition (INH) [40]: 20.76%
- Activity [41]: 100%
- Activity [42]: Dose-Dependent Effect
- Activity [43]: Toxic
- Activity [44]: 100%
- MIC [45]: 15 µg/mL
- MIC [46]: 7.5 µg/mL (≈ 4.15 µM)
- MIC [47]: 7.5 µg/mL (≈ 4.15 µM)
